Assay [1] addresses T1, Aurora A kinase domain (Homo sapiens, UniProt O14965).
T1 construct: human Aurora A kinase domain (residues 122-403 in the pET24-d vector); His-tag (cleaved yes); made in house; host or cells: E. coli BL21 (DE3) Rosetta
T1 sequence (O14965 122-403): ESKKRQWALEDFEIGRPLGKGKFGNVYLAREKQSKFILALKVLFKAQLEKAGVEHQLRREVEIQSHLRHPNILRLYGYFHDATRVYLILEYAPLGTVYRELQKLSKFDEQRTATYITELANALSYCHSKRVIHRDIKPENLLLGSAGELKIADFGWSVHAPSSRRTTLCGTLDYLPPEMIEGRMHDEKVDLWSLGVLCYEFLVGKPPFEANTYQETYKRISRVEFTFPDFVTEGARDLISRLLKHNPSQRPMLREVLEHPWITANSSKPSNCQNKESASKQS
Nature of the assay: HTRF kinase assay, Aurora A. Particulars: free Aurora A, 20 μM ATP, HTRF; read-out: IC50 Aurora A (biochemical). The format is biochemical. As to the method:
The clone of human Aurora A kinase domain (residues 122-403 in the pET24-d vector) was kindly provided by the Montoya laboratory (University of Copenhagen). The construct was transformed into E. coli BL21 (DE3) Rosetta cells and protein expression was induced with 0.5 mM IPTG at 20° C. for 12 hours. The cells were harvested at 6,000×g for 25 min at 4° C. and resuspended in lysis buffer (50 mM Tris-HCl, 500 mM NaCl, 1 mM PMSF, pH=8.0). Disruption of the cells was performed by sonication cooled on ice, after which the debris were removed by centrifugation at 110,000×g for 30 min at 4° C. Aurora A was purified by affinity chromatography using NiNTA resin from Qiagen following the manufacturer's instructions. After loading, the resin was washed with lysis buffer, followed by a second wash with 6% elution buffer (50 mM Tris-HCl, 500 mM NaCl, 500 mM imidazole, pH=8.0). Protein was eluted with 100% elution buffer. The eluate was exchanged into final buffer (20 mM Tris-HCl, 200 mM NaCl, 0.5 mM EDTA, 2 mM DTT, pH=8.0) using a HiPrep 26/10 desalting column (GE Healthcare). The His-tag was cleaved with TEV protease at 4° C. overnight. […] Protein concentration was determined by UV absorbance. […]
Aurora A and AuroraB kinases were assayed using the homogeneous time-resolved fluorescence (HTRF) KinEASE STK2 kit from Cisbio (France). […] After incubation at room temperature for one hour, fluorescence was measured at 620 nm (europium cryptate) and 665 nm (XL-665) after excitation at 317 nm (lag time 60 μs, integration time 500 μs) using a Tecan Infinite M1000 PRO microplate reader (Greiner 384-well plates, white, non-binding, small volume). The ratio of fluorescence (665 nm/620 nm) was calculated for each well and the results were expressed as follows: specific signal=ratio (sample)−ratio (negative control), where ratio=665 nm/620 nm×10^4. Compounds were measured in threefold serial dilutions at 10 different concentrations, covering the concentration range from no to full inhibition. Each concentration was measured in duplicates, and two independent determinations were made for each IC50 value. […]

In assay [2] the target is T2, Aurora A (Homo sapiens, UniProt O14965).
T2 sequence (O14965 1-403): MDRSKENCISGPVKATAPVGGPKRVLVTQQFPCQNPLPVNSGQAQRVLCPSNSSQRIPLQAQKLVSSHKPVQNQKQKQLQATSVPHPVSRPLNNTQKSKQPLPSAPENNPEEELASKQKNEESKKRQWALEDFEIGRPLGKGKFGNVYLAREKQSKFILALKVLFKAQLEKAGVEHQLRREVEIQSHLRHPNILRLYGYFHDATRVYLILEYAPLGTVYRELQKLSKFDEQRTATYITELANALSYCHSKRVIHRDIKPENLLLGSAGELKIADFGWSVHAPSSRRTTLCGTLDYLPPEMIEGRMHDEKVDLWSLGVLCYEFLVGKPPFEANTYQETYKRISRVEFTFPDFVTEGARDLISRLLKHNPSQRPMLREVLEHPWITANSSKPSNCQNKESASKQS
Nature of the assay: Active site directed binding competition assay, KD (DiscoveRx). Particulars: free Aurora A. As to the method:
The kinome profiling of compound 9 was conducted by DiscoveRx. In total, 456 kinases were assayed (scanMAX). For most assays, kinase-tagged T7 phage strains were grown in parallel in 24-well blocks in an E. coli host derived from the BL21 strain. E. coli were grown to log-phase and infected with T7 phage from a frozen stock (multiplicity of infection=0.4) and incubated with shaking at 32° C. until lysis (90-150 minutes). The lysates were centrifuged (6000 g) and filtered (0.2 μm) to remove cell debris. The remaining kinases were produced in HEK-293 cells and subsequently tagged with DNA for qPCR detection. […] The liganded beads were blocked with excess biotin and washed with blocking buffer (SeaBlock (Pierce), 1% BSA, 0.05% Tween 20, 1 mM DTT) to remove unbound ligand and to reduce non-specific phage binding. […] Test compounds were prepared as 40× stocks in 100% DMSO and directly diluted into the assay. All reactions were performed in polypropylene 384-well plates in a final volume of 0.04 ml. […] The kinase concentration in the eluates was measured by qPCR. […] was screened at 1 μM, and results for primary screen binding interactions were reported as % of control (PoC). PoC=(test compound signal−positive control signal)/(DMSO signal−positive control signal). PoC values at 1 μM 9 for all kinases were visualized using TREEspot (DiscoveRx). […] KD values were determined with a standard dose-response curve using the Hill equation.

Assay [3] has as its target T3, Aurora A bound to TPX2 (Homo sapiens, UniProt O14965).
T3 construct: human Aurora A kinase domain (residues 122-403 in the pET24-d vector); His-tag (cleaved yes); made in house; host or cells: E. coli
T3 sequence (O14965 122-403): T1 sequence (O14965 122-403)
As to the kind of experiment: Aurora A kinase activity and inhibition in the presence of TPX2. It counts as biochemical. Particulars: TPX2 present.
Experimental: Aurora A and AuroraB kinases were assayed using the homogeneous time-resolved fluorescence (HTRF) KinEASE STK2 kit from Cisbio (France). […] For both enzymes, the reactions were run for 30 min at room temperature and stopped by the addition of 10 μL of detection buffer containing EDTA, antiphospho-Ser/Thr antibody labelled with europium cryptate, and XL-665 conjugated streptavidin (62.5 nM final concentration). After incubation at room temperature for one hour, fluorescence was measured at 620 nm (europium cryptate) and 665 nm (XL-665) after excitation at 317 nm (lag time 60 μs, integration time 500 μs) using a Tecan Infinite M1000 PRO microplate reader (Greiner 384-well plates, white, non-binding, small volume). The ratio of fluorescence (665 nm/620 nm) was calculated for each well and the results were expressed as follows: specific signal=ratio (sample)−ratio (negative control), where ratio=665 nm/620 nm×10^4. […] Each concentration was measured in duplicates, and two independent determinations were made for each IC50 value. IC50 curves were generated using a four-parameter logistic model (XLfit from IDBS).

Data on one compound can be found in US20190352297A1, “SELECTIVE AURORA A KINASE INHIBITORS” (UNIVERSITAT BERN, priority 2017, published 2019).

In the case of `CCc1ccc(N=C2SC(=Cc3ccnc(Nc4ccc(C(=O)O)cn4)c3)C(=O)N2C)cc1` [Compound 9], the figures for the IC50 in assay [1] and in assay [3] were 2 ± 0.5 nM and 1400 nM, respectively. The compound further gave a Kd in assay [2] of 5 nM.
